According to PMC7894426, “Influence of verapamil on the pharmacokinetics of rotundic acid in rats and its potential mechanism” (Pharmaceutical Biology, 2021):
Like-named read-outs stand apart in the source and are kept apart here.

How the values were obtained:
[1] = In vivo pharmacokinetic study of oral rotundic acid with or without verapamil pre-treatment; design: species or system Sprague–Dawley rats; conditions: rats, RA 10 mg/kg oral; for AUC(0-inf) / CL/F / Cmax / Vd/F / half-life / AUC(0-t) / Tmax: male, Sprague-Dawley, rat, plasma, po, 10 mg/kg; for AUC(0-t): read-out: AUC0–24
Procedure: Male Sprague–Dawley rats (180–220 g) were purchased from SiPeiFu (Beijing) Biotechnology Co., Ltd. (Beijing, China). Rats were housed in a breeding room at stable temperature (22 ± 3 °C), humidity (55 ± 10%), and under non-pathogenic conditions. All animals were placed under the above conditions and acclimatized to the facilities for one week, then fasted for 12 h with water ad libitum before the experiments. The protocols involving experimental animals were carried out by the guidelines of the Animal Ethical Committee of Tianjin Institute of Pharmaceutical Research (Tianjin, China).
To evaluate the influence of verapamil on the in vivo pharmacokinetics of RA, the male Sprague–Dawley rats were randomly divided into three groups (n = 6), including a control group and two pre-treatment groups. The pre-treatment groups received verapamil orally by gavage at a dose of 25 and 50 mg/kg (dissolved in 5% gum arabicin at a concentration of 5 and 10 mg/mL, respectively) separately for 15 min before the administration of RA at a dose of 10 mg/kg (dissolved in 5% gum arabicin at a concentration of 2 mg/mL). The dose of verapamil selected was equated to the human maximum recommended daily dose of 240–480 mg for a 60 kg person following allometric conversion (US Food and Drug Administration [2005]; Cao et al. [2007]). The control group received equal amounts of the vehicle (5% gum arabicin) before the oral administration of RA. Whole blood samples (200 µL) were collected from the orbital venous plexus at 0.0833, 0.25, 0.5, 1, 1.5, 2, 3, 4, 6, 8, 10 and 24 h after oral administration. All samples were transferred into heparinized tubes and then centrifuged for 5 min at 12,000 rpm and 4 °C immediately. The supernatants of separated plasma samples were harvested and stored at −20 °C until LC-MS/MS analysis.
RA was extracted from the sample using a simple protein precipitation method with a 3-fold volume of an organic solvent consisting of methanol-acetonitrile (1:2, v/v). Briefly, a 50 µL aliquot of plasma sample was thawed at room temperature and was then precipitated by 50 µL of methanol and 100 µL of acetonitrile containing IS (10 ng/mL). The sample was mixed uniformly for 1 min, and then centrifuged for 10 min at 12,000 rpm and 4 °C. Subsequently, 10 µL supernatants were injected into the LC-MS/MS system for analysis.
The separation and mass spectrometric analysis of the RA was achieved on a Waters ACQUITY^TM Ultra Performance LC system coupled with a Tandem Quadrupole (TQ) Detector equipped with an electrospray ionization (ESI) source. Chromatographic separation was performed at 40 °C with an ACQUITYUPLC BEH C8 column (1.7 µm, 2.1 × 50 mm, Waters Corp., USA). The mobile phase consisted of methanol-acetonitrile (50:50, v/v, mobile phase A), and 5 mM ammonium formate-methanol (90:10, v/v, mobile phase B). While the gradient elution procedure was employed for the separation of analytes at a flow rate of 0.3 mL/min. The optimized gradient elution program was as follows: 0 min 60% B, 3 min 10% B, 4 min 10% B, and 5 min 60% B. The injection volume was 10 µL at an autosampler temperature of 6 °C. The analytical run time for each sample was 5.0 min. The HPLC elution was injected into waste for the first 1.2 min, into the MS detector for the next 1 min, and back into waste for the remaining run time. RA and IS were monitored with the mass spectrometer by negative ESI source mode. The ionization source parameters were set as follows: 2.5 kV, 30 V, 120 °C, 350 °C, 50 L/h, and 650 L/h for capillary voltage, cone voltage, source temperature, desolvation temperature, cone gas, and desolvation gas, respectively. The optimal collision energy was operated at 30 V for RA and 20 V for IS. Argon was used as the collision gas. Samples were analyzed by multiple reaction monitoring (MRM) of the transitions of m/z 487.3 → 469.3 for RA and m/z 256.0 → 227.0 for IS, respectively. The dwell time was set at 0.2 s per transition. Data were acquired by MassLynx 4.1 software. […]

[2] = rats, oral administration; ref Nan et al. [2016]; cited from earlier work
[3] = Bidirectional transport across MDCKII-Mock cell monolayers; format: in vitro ADME, canine; conditions: dog, MDCK, MDCKII-Mock, 20 min; for efflux ratio at 20 min: read-out: RE (efflux ratio)
Procedure: The qualified monolayers were used for transport studies. […] Each experiment was carried out in triplicate.

[4] = molecular target: T1, CYP3A4 (Homo sapiens, UniProt P08684); experiment: Metabolic depletion of RA by rhCYP3A4; format: in vitro ADME
T1 construct: purchased Research Institute for Liver Disease (Shanghai) Co., Ltd
Procedure: (§1) The metabolic stability of RA was evaluated against five rhCYPs (1A2, 2C8, 2C9, 2D6 and 3A4). Incubation was taken place in 0.1 M sodium phosphate buffer (pH 7.4) containing 5 mM MgCl2, 1 mM NADPH, and 25 pM rhCYP enzyme protein at 37 °C in a total volume of 1 mL. After pre-incubated for 5 min, the reactions were started by the addition of RA methanol solution (final concentration of 2 µM). Aliquots of 50 µL incubation solution were collected from the reaction at 0, 5, 10, 20 and 30 min, and quenched with 50 µL ice-cold methanol (containing 0.5% formic acid) and 100 µL ice-cold acetonitrile containing IS (10 ng/mL). The heat-inactivated rhCYP3A4 were used as negative controls. All reactions were conducted in triplicate, followed by LC-MS/MS analysis. Results presented in percentage of drug remaining in incubation starting at 100% at time zero.

[5] = molecular target: T2, CYP2D6 (Homo sapiens, UniProt P10635); experiment: Metabolic depletion of RA by rhCYP2D6; format: in vitro ADME; conditions: rhCYP2D6 25 pM, RA 2 µM, 30 min
T2 construct: purchased Research Institute for Liver Disease (Shanghai) Co., Ltd
Procedure: as §1

[6] = system: Caco-2 cells; experiment: MTS cell-proliferation assay; format: cell-based, human; conditions: 25 µM RA
[7] = pre-treatment of verapamil 25 mg/kg
[8] = pre-treatment of verapamil 50 mg/kg
[9] = pH 7.4, with verapamil 50 µM, + 50 µM verapamil

T1 sequence (P08684 whole entry): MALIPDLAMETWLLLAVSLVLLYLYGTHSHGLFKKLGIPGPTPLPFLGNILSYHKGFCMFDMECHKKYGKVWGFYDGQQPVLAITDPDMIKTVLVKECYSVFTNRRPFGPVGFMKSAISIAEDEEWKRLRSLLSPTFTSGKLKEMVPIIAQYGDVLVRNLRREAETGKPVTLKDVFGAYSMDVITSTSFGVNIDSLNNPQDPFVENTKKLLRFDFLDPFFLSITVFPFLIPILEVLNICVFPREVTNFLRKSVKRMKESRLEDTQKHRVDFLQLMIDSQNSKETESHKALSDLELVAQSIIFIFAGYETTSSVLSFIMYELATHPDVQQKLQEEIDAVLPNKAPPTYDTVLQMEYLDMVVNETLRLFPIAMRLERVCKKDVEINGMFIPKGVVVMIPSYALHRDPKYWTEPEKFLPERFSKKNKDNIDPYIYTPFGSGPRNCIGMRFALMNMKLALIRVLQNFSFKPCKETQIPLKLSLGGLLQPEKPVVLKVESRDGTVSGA
T2 sequence (P10635 whole entry): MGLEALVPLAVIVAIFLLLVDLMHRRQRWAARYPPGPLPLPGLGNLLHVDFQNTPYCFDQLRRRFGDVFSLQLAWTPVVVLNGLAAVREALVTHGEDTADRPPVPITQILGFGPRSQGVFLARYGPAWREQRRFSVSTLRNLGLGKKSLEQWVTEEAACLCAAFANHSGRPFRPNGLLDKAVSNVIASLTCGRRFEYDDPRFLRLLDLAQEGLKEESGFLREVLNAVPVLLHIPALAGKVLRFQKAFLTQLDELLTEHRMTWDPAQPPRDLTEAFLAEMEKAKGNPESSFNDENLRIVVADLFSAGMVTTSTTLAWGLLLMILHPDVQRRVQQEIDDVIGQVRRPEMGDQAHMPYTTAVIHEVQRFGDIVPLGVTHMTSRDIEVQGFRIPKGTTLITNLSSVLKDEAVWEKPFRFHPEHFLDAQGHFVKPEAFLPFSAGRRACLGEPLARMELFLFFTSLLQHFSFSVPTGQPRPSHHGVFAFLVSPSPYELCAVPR

`C[C@@H]1CC[C@]2(C(=O)O)CC[C@]3(C)C(=CC[C@@H]4[C@@]5(C)CC[C@H](O)[C@@](C)(CO)[C@@H]5CC[C@]43C)[C@@H]2[C@]1(C)O` [RA, Rotundic acid] showed an AUC(0-inf) ([1]; control (vehicle)) of 0.432 ± 0.0642 µg·h/mL, a CL/F ([1]; control (vehicle)) of 23.6 L/h/kg and a Cmax ([1]; control (vehicle)) of 0.108 ± 0.0105 µg/mL. For the same compound, the Vd/F ([1]; control (vehicle)) was 64.6 ± 22.6 L/kg, the half-life ([1]; control (vehicle)) was ~2 h and the AUC(0-t) ([1]; control (vehicle)) was 0.405 ± 0.0682 µg·h/mL. For the same compound, the Tmax ([1]; control (vehicle), read-out: Tmax) was 0.292 ± 0.228 h, the AUC(0-inf) [1, 7] was 0.539 ± 0.0536 µg·h/mL and the CL/F [1, 7] was 18.7 L/h/kg. The Cmax [1, 7] was 0.117 ± 0.0149 µg/mL, the Vd/F [1, 7] was 66.7 ± 21.1 L/kg and the half-life [1, 7] was 2.44 ± 0.572 h. The AUC(0-t) [1, 7] was 0.496 ± 0.063 µg·h/mL, the Tmax ([1]; pre-treatment of verapamil 25 mg/kg, read-out: Tmax) was 0.625 ± 0.306 h and the AUC(0-inf) [1, 8] was 0.836 ± 0.116 µg·h/mL. It also gave a CL/F [1, 8] of 12.2 L/h/kg, a Cmax [1, 8] of 0.219 ± 0.0368 µg/mL and a Vd/F [1, 8] of 41.3 ± 12.3 L/kg. It also gave a half-life [1, 8] of 2.31 ± 0.404 h, an AUC(0-t) [1, 8] of 0.782 ± 0.115 µg·h/mL and a Tmax ([1]; pre-treatment of verapamil 50 mg/kg, read-out: Tmax) of 1.17 ± 0.516 h. For the same compound, the Tmax ([1]; without verapamil, read-out: time to peak plasma concentration (converted)) was ~0.25 h, the t1/2 ([1]; control (vehicle)) was 1.85 ± 0.390 h and the oral bioavailability [2] was 4.52%. For the same compound, the Papp A→B at 20 min [3, 9] was 65.2 ± 8.64 nm/s, the Papp B→A at 20 min [3, 9] was 62.3 ± 8.95 nm/s and the efflux ratio at 20 min [3, 9] was 0.955. For the same compound, the Papp A→B at 20 min ([3]; pH 7.4, without verapamil) was 60.7 ± 8.86 nm/s, the Papp B→A at 20 min ([3]; pH 7.4, without verapamil) was 67.2 ± 20.3 nm/s and the efflux ratio at 20 min ([3]; pH 7.4, without verapamil) was 1.11. For the same compound, the “degradation in negative control” value ([4]; heat-inactivated rhCYP3A4, RA 2 µM) was “No obvious degradation”, the RA converted ([4]; rhCYP3A4 25 pM, RA 2 µM, 30 min) was 88.2% and the RA converted [5] was < 30%. For the same compound, the “effect on cell proliferation (MTS)” value [6] was “did not influence the cell proliferation”.
